In general, inhibition refers to the relative decrease from the control value, in per cent. For orientation: IC50 means the concentration at which inhibition is half-maximal.

Consider 13 molecules from US20250368649A1, “TETRAHYDROPYRIDOPYRIMIDINE PAN-KRAS INHIBITORS” (Mirati Therapeutics, Inc., priority 2022, published 2025).

For one assay, the system named is ASPC1 cells. As to the kind of experiment: Inhibition of KRas-mediated phosphorylation of ERK (Cisbio HTRF pERK), ASPC1 cells. The class given is cell-based. The settings on record: Homo sapiens, AsPC-1 cells; for inhibition at 0.1 µM: ASPC1, single point at 100 nM, 3 hrs compound incubation; for IC50: ASPC1, 3 h, 3 hr compound incubation.
For another assay, the system named is H727 cells. As to the kind of experiment: Inhibition of KRas-mediated phosphorylation of ERK (Cisbio HTRF pERK), H727 cells. It counts as cell-based. The settings on record: Homo sapiens; for inhibition at 0.1 µM: NCI-H727, single point at 100 nM, 3 hrs compound incubation; for IC50: NCI-H727, 3 h, 3 hr compound incubation.
The test system of the next assay is A549 cells. In words: Inhibition of KRas-mediated phosphorylation of ERK (Cisbio HTRF pERK), A549 cells. It counts as cell-based. The settings on record: Homo sapiens; for inhibition at 0.1 µM: single point at 100 nM, 3 hrs compound incubation. A general note: Time-resolved FRET reads energy transfer from a long-lived donor to a nearby acceptor.
The next assay relates to H358 cells. As to the kind of experiment: Inhibition of KRas-mediated phosphorylation of ERK (Cisbio HTRF pERK), H358 cells. The class given is cell-based. The settings on record: Homo sapiens; for inhibition at 0.1 µM: NCI-H358, single point at 100 nM, 3 hrs compound incubation.
For the next assay, the target named is KRas G12D (Homo sapiens, UniProt P01116, G12D). As to the kind of experiment: biochemical. The settings on record: Binding to KRas (IC50 nM) G12D, TR-FRET displacement, KRas G12D.
The target of another assay is KRas G12R (Homo sapiens, UniProt P01116, G12R). In words: biochemical. The settings on record: Binding to KRas (IC50 nM) G12R, TR-FRET displacement, KRas G12R.
For a further assay, the target named is KRas G12V (Homo sapiens, UniProt P01116, G12V). As to the kind of experiment: biochemical. The settings on record: Binding to KRas (IC50 nM) G12V, TR-FRET displacement, KRas G12V.
KRas G12V, sequence (P01116 1-169 isoform P01116-2 G12V): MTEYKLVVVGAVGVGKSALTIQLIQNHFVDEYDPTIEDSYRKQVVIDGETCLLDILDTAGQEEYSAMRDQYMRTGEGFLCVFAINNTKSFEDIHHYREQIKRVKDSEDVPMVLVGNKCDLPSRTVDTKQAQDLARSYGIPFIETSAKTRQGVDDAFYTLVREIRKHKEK

KRas G12D, sequence (P01116 1-169 isoform P01116-2 G12D): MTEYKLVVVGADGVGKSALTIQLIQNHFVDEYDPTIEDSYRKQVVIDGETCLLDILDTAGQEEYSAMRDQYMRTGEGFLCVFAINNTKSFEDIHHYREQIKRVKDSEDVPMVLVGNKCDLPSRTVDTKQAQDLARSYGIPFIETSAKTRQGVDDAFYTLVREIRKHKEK
KRas G12R, sequence (P01116 1-169 isoform P01116-2 G12R): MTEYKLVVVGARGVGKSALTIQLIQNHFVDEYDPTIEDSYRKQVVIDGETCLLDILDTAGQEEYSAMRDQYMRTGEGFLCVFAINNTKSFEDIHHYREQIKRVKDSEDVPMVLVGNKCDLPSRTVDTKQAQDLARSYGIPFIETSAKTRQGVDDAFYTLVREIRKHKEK

For the molecule `CCc1c(F)ccc2cc(O)cc(N3CCc4c(nc(OC[C@@]56CCCN5C[C@H](F)C6)nc4N4CCCc5c(cnn5C5CC5)C4)C3)c12` [Example 238, 4-(4-(1-cyclopropyl-7,8-dihydropyrazolo[4,3-c]azepin-5(1H,4H,6H)-yl)-2-(((2R,7aS)-2-fluorohexahydro-1H-pyrrolizin-7a-yl)methoxy)-5,6-dihydropyrido[3,4-d]pyrimidin-7(8H)-yl)-5-ethyl-6-fluoronaphthalen-2-ol], the inhibition at 0.1 µM in the assay on ASPC1 cells is 9%; in the assay with H727 cells, -2%; with A549 cells, -3%; in the assay with H358 cells, -17%. Further, the IC50 came out at 1390 nM on KRas G12D, 4610 nM on KRas G12R and 1140 nM at KRas G12V.

In the case of `CCc1c(F)ccc2cc(O)cc(N3CCc4c(nc(OC[C@@]56CCCN5C[C@H](F)C6)nc4N4CCCc5c(cnn5C5CCC5)C4)C3)c12` [Example 240, 4-(4-(1-cyclobutyl-7,8-dihydropyrazolo[4,3-c]azepin-5(1H,4H,6H)-yl)-2-(((2R,7aS)-2-fluorohexahydro-1H-pyrrolizin-7a-yl)methoxy)-5,6-dihydropyrido[3,4-d]pyrimidin-7(8H)-yl)-5-ethyl-6-fluoronaphthalen-2-ol], the inhibition at 0.1 µM in the assay on ASPC1 cells is -5%; in the assay with H727 cells it was -18%; in the assay on A549 cells, -1%; in the assay on H358 cells, -1%. Moreover, the IC50 at KRas G12D amounted to 9840 nM; on KRas G12R, 7480 nM; on KRas G12V, 2380 nM.

Take `CCc1c(F)ccc2cc(O)cc(N3CCc4c(nc(OC[C@@]56CCCN5C[C@H](F)C6)nc4N4CCCc5nn(C6CCC6)cc5C4)C3)c12` [Example 241, 4-(4-(2-cyclobutyl-7,8-dihydropyrazolo[4,3-c]azepin-5(2H,4H,6H)-yl)-2-(((2R,7aS)-2-fluorohexahydro-1H-pyrrolizin-7a-yl)methoxy)-5,6-dihydropyrido[3,4-d]pyrimidin-7(8H)-yl)-5-ethyl-6-fluoronaphthalen-2-ol]: the half-inhibitory concentration (IC50) in the assay with ASPC1 cells (Cisbio pERK HTRF) was 7110 nM; with H727 cells (Cisbio pERK HTRF), 5020 nM; on KRas G12D it was 173 nM; on KRas G12R, 48 nM; at KRas G12V it was 155 nM. For the same molecule, the inhibition at 0.1 µM in the assay with ASPC1 cells is 5%; in the assay with H727 cells it was -4%; in the assay on A549 cells it was 5%; with H358 cells, -15%.

Regarding `CCc1c(F)ccc2cc(O)cc(N3CCc4c(nc(OC[C@@]56CCCN5C[C@H](F)C6)nc4N4CCCc5nn(C6COC6)cc5C4)C3)c12` [Example 242, 5-ethyl-6-fluoro-4-(2-(((2R,7aS)-2-fluorohexahydro-1H-pyrrolizin-7a-yl)methoxy)-4-(2-(oxetan-3-yl)-7,8-dihydropyrazolo[4,3-c]azepin-5(2H,4H,6H)-yl)-5,6-dihydropyrido[3,4-d]pyrimidin-7(8H)-yl)naphthalen-2-ol], the IC50 was 3480 nM with ASPC1 cells (Cisbio pERK HTRF); 5630 nM with H727 cells (Cisbio pERK HTRF); 57 nM on KRas G12D; 49 nM at KRas G12R; 85 nM at KRas G12V. In addition, the inhibition at 0.1 µM with ASPC1 cells is -9%; with H727 cells, 2%; in the assay with A549 cells it was 6%; in the assay on H358 cells, 3%.

Turning to `CCc1c(F)ccc2cc(O)cc(N3CCc4c(nc(OC[C@@]56CCCN5C[C@H](F)C6)nc4N4CCCn5nc(N(C(C)C)S(C)(=O)=O)cc5C4)C3)c12` [Example 285, N-(5-(7-(8-ethyl-7-fluoro-3-hydroxynaphthalen-1-yl)-2-(((2R,7aS)-2-fluorohexahydro-1H-pyrrolizin-7a-yl)methoxy)-5,6,7,8-tetrahydropyrido[3,4-d]pyrimidin-4-yl)-5,6,7,8-tetrahydro-4H-pyrazolo[1,5-a][1,4]diazepin-2-yl)-N-isopropylmethanesulfonamide], the IC50 in the assay with ASPC1 cells (Cisbio pERK HTRF) was over 10000 nM; with H727 cells (Cisbio pERK HTRF), over 10000 nM; on KRas G12D, 563 nM; on KRas G12R, 773 nM; on KRas G12V it was 886 nM.

Turning to `CCc1c(F)ccc2cc(O)cc(N3CCc4c(nc(OC[C@@]56CCCN5C[C@H](F)C6)nc4N4CCNc5cc(Br)ccc5C4)C3)c12` [Example 348, 4-(4-(8-bromo-1,2,3,5-tetrahydro-4H-benzo[e][1,4]diazepin-4-yl)-2-(((2R,7aS)-2-fluorotetrahydro-1H-pyrrolizin-7a(5H)-yl)methoxy)-5,8-dihydropyrido[3,4-d]pyrimidin-7(6H)-yl)-5-ethyl-6-fluoronaphthalen-2-ol], the IC50 was over 10000 nM in the assay with ASPC1 cells (Cisbio pERK HTRF); over 10000 nM in the assay with H727 cells (Cisbio pERK HTRF); 83300 nM on KRas G12D; 43000 nM at KRas G12R; 38500 nM at KRas G12V.

For `CCc1c(F)ccc2cc(O)cc(N3CCc4c(nc(OC[C@@]56CCCN5C[C@H](F)C6)nc4NCC4NC(=O)NC4=O)C3)c12` (stereo partly drawn) [Example 377, 5-(((7-(8-ethyl-7-fluoro-3-hydroxynaphthalen-1-yl)-2-(((2R,7aS)-2-fluorohexahydro-1H-pyrrolizin-7a-yl)methoxy)-5,6,7,8-tetrahydropyrido[3,4-d]pyrimidin-4-yl)amino)methyl)imidazolidine-2,4-dione], the half-maximal inhibitory concentration (IC50) is 2340 nM in the assay on ASPC1 cells (Cisbio pERK HTRF); 677 nM with H727 cells (Cisbio pERK HTRF); 4 nM on KRas G12D; 4 nM on KRas G12R; under 2 nM on KRas G12V.

For `CCc1c(F)ccc2cc(O)cc(N3CCc4c(nc(OC[C@@]56CCCN5C[C@H](F)C6)nc4NCc4cc(C(=O)N(C)C)nn4C)C3)c12` [Example 399, 5-(((7-(8-ethyl-7-fluoro-3-hydroxynaphthalen-1-yl)-2-(((2R,7aS)-2-fluorohexahydro-1H-pyrrolizin-7a-yl)methoxy)-5,6,7,8-tetrahydropyrido[3,4-d]pyrimidin-4-yl)amino)methyl)-N,N,1-trimethyl-1H-pyrazole-3-carboxamide], the IC50 came to 513 nM with ASPC1 cells (Cisbio pERK HTRF); 896 nM with H727 cells (Cisbio pERK HTRF); 3 nM at KRas G12D; 8 nM at KRas G12R; 4 nM at KRas G12V.

In the case of `CCc1c(F)ccc2cc(O)cc(N3CCc4c(nc(OC[C@@]56CCCN5C[C@H](F)C6)nc4N4CCCC5(CCNC5=O)C4)C3)c12` (stereo partly drawn) [Example 401, 7-(7-(8-ethyl-7-fluoro-3-hydroxynaphthalen-1-yl)-2-(((2R,7aS)-2-fluorohexahydro-1H-pyrrolizin-7a-yl)methoxy)-5,6,7,8-tetrahydropyrido[3,4-d]pyrimidin-4-yl)-2,7-diazaspiro[4.5]decan-1-one], the concentration for half-maximal inhibition (IC50) with ASPC1 cells (Cisbio pERK HTRF) stood at 1730 nM; with H727 cells (Cisbio pERK HTRF) it was 1410 nM; at KRas G12D it was 59 nM; at KRas G12R, 10 nM; at KRas G12V it was 22 nM.

Take `CCc1c(F)ccc2cc(O)cc(N3CCc4c(nc(OC[C@@]56CCCN5C[C@H](F)C6)nc4N4CCCc5occc5C4)C3)c12` [Example 423, 4-(4-(7,8-dihydro-4H-furo[3,2-c]azepin-5(6H)-yl)-2-(((2R,7aS)-2-fluorohexahydro-1H-pyrrolizin-7a-yl)methoxy)-5,6-dihydropyrido[3,4-d]pyrimidin-7(8H)-yl)-5-ethyl-6-fluoronaphthalen-2-ol]: the IC50 worked out at 4950 nM in the assay on ASPC1 cells (Cisbio pERK HTRF); 1970 nM in the assay on H727 cells (Cisbio pERK HTRF); 396 nM on KRas G12D; 26 nM at KRas G12R; 42 nM on KRas G12V.

Consider `O=C1NCC2(CCCN(c3nc(OC[C@@]45CCCN4C[C@H](F)C5)nc4c3CCN(c3c5ccccc5cc5[nH]ncc35)C4)C2)N1` (stereo partly drawn) [Example 473, 7-(7-(1H-benzo[f]indazol-4-yl)-2-(((2R,7aS)-2-fluorohexahydro-1H-pyrrolizin-7a-yl)methoxy)-5,6,7,8-tetrahydropyrido[3,4-d]pyrimidin-4-yl)-1,3,7-triazaspiro[4.5]decan-2-one], for which the IC50 was 5120 nM in the assay with ASPC1 cells (Cisbio pERK HTRF) and 4100 nM with H727 cells (Cisbio pERK HTRF). Besides, the inhibition at 0.1 µM with A549 cells and with H358 cells was 12% each time.

Take `O=C1NCC12CCCN(c1nc(OC[C@@]34CCCN3C[C@H](F)C4)nc3c1CCN(c1cc(O)cc4ccc(F)c(Br)c14)C3)C2` (stereo partly drawn) [Example 482, 6-(7-(8-bromo-7-fluoro-3-hydroxynaphthalen-1-yl)-2-(((2R,7aS)-2-fluorohexahydro-1H-pyrrolizin-7a-yl)methoxy)-5,6,7,8-tetrahydropyrido[3,4-d]pyrimidin-4-yl)-2,6-diazaspiro[3.5]nonan-1-one]: the IC50 in the assay with ASPC1 cells (Cisbio pERK HTRF) is 1460 nM; in the assay with H727 cells (Cisbio pERK HTRF), 1200 nM; at KRas G12D it was 3 nM; on KRas G12R, 5 nM; at KRas G12V, under 2 nM.

Take `CCc1c(F)ccc2cc(O)cc(N3CCc4c(nc(OC[C@@]56CCCN5C/C(=C\F)C6)nc4N4CCC[C@]5(C4)NC(=O)NC5=O)C3)c12` [Example 715, (R)-7-(7-(8-ethyl-7-fluoro-3-hydroxynaphthalen-1-yl)-2-(((S,Z)-2-(fluoromethylene)tetrahydro-1H-pyrrolizin-7a(5H)-yl)methoxy)-5,6,7,8-tetrahydropyrido[3,4-d]pyrimidin-4-yl)-1,3,7-triazaspiro[4.5]decane-2,4-dione]: the IC50 with ASPC1 cells worked out at 2 nM; in the assay with H727 cells, 4 nM; with A549 cells (A549, 3 h, 3 hr compound incubation), 1 nM; in the assay with H358 cells (NCI-H358, 3 h, 3 hr compound incubation), 1 nM.
